{"source": "paper PMC6934599", "about": "“Phenoxyethyl Piperidine/Morpholine Derivatives as PAS and CAS Inhibitors of Cholinesterases: Insights for Future Drug Design” (Scientific Reports, 2019)", "key": {"Aβ peptide": {"test_system": "Aβ peptide", "conditions": "cited from earlier work"}, "[1]": {"molecular_target": "T1, AChE (E.C.3.1.1.7, from electric eel) (Electrophorus electricus, UniProt O42275)", "T1 construct": "purchased Sigma-Aldrich and Fluka", "T1 sequence (O42275 24-633)": "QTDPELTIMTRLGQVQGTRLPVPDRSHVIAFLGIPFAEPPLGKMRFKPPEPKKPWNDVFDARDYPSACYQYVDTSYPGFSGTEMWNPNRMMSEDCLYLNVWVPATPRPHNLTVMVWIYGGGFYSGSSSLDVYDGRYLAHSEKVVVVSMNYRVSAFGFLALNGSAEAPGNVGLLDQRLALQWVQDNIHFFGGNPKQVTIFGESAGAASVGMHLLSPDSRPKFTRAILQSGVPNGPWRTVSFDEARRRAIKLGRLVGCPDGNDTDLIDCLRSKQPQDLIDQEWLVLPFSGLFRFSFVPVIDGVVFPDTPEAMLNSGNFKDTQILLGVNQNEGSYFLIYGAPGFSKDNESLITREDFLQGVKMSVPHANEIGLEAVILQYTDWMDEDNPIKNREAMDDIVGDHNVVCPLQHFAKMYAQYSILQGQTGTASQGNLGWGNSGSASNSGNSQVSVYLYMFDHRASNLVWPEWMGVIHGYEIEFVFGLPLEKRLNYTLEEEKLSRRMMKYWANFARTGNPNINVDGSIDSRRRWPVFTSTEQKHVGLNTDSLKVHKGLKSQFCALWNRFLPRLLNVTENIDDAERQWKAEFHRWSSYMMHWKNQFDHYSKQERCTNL", "test": "biochemical", "format": "biochemical", "conditions": "for cholinesterase inhibitory activity against eeAChE: in words", "experimental": "(§1) All the synthesized compounds were screened for their cholinesterase activity by Ellman’s spectrophotometric method with a slight modification. […] In brief, enzymatic reactions were accomplished in 96-well plates with total volume of 270 µL. Each well contained 0.1 M phosphate buffer (pH 7.4), 0.08 U/mL AChE or 0.05 U/mL BuChE and 0.3 mM of DTNB. In order to considering the influence of DMSO percentage on the enzymatic activity of AChE, different concentrations of the test sample were prepared in final concentrations of 0.2% DMSO. Then contents were incubated for 15 min at room temperature. The reaction was started with the addition of 20 µL of 0.45 mM substrate (ATCI/BTCI) into premixed enzyme/buffer/inhibitor mixture and monitored by using plate reader Synergy HT, Biotek, USA at 412 nm. The activity in the absence of sample compounds was considered as a blank. The percentage inhibition was calculated from (blank – test sample)/blank × 100."}, "[2]": {"molecular_target": "T2, BuChE (E.C.3.1.1.8, from equine serum) (Equus caballus, UniProt P81908)", "T2 construct": "BuChE (E.C.3.1.1.8, from equine serum); purchased Sigma-Aldrich and Fluka; host or cells: equine serum", "T2 sequence (P81908 whole entry)": "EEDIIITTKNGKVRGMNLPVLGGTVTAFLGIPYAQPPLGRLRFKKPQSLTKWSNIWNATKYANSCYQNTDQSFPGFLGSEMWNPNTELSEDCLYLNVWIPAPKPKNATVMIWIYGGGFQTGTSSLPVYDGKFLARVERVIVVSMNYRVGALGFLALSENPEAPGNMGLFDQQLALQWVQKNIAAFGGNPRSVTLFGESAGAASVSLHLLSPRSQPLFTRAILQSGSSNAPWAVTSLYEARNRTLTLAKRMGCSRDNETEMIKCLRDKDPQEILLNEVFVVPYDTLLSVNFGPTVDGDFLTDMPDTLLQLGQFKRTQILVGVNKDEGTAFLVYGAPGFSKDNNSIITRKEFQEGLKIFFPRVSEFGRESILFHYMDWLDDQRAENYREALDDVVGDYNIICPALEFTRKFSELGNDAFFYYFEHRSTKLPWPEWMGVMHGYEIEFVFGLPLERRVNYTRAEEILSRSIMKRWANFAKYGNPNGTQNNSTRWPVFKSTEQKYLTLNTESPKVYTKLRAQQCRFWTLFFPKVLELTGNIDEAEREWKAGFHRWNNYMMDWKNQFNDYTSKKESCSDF", "test": "biochemical", "format": "biochemical", "conditions": "for cholinesterase inhibitory activity against eqBuChE: in words; for inhibitory activity for eqBuChE: up to 100 µM concentrations; for IC50: modified Ellman's method, read-out: eqBuChE IC50", "experimental": "as §1"}, "AChE": {"test_system": "AChE", "conditions": "cited from earlier work"}, "eeAChE": {"molecular_target": "T3, eeAChE (Electrophorus electricus, UniProt O42275)", "T3 construct": "purchased Sigma-Aldrich and Fluka", "T3 sequence (O42275 24-633)": "as the sequence (O42275 24-633) above", "test": "Kinetic study of eeAChE inhibition (Lineweaver-Burk)", "format": "biochemical", "experimental": "Two fixed concentrations of the inhibitor (IC50, 2IC50) were chosen and for each concentration, the initial velocity (V) of the substrate ATCI/BTCI hydrolysis was measured at different concentrations in the range of 0–1.5 mM. […] Furthermore, Ki value was obtained by extrapolating the slopes of Lineweaver-Burk plots against inhibitor concentrations (Fig. 3B).\n(§2) To determine the mechanisms of action of 5c and 7c, a series of experiments were performed at different concentrations of the substrate ATCI/BTCI. The inhibitor concentrations were (IC50, 2IC50). Substrates ATCI/BTCI concentrations were 0, 0.13, 0.3, 0.45, 0.675, 1.01 and 1.51 mM in all kinetic studies. Pre-incubation and measurement time were the same as reported in the perivous assay protocol. Kinetic characterization analysis was done spectrometrically at 412 nm."}, "eqBuChE": {"molecular_target": "T4, eqBuChE (Equus caballus, UniProt P81908)", "T4 construct": "BuChE (E.C.3.1.1.8, from equine serum); purchased Sigma-Aldrich and Fluka; host or cells: equine serum", "T4 sequence (P81908 whole entry)": "as the sequence (P81908 whole entry) above", "test": "Kinetic study of eqBuChE inhibition (Lineweaver-Burk)", "format": "biochemical", "experimental": "as §2"}, "[3]": {"conditions": "modified Ellman's method, read-out: eeAChE IC50"}}, "note": "Entries after “also recorded” stand apart in the source; their conditions may differ. Read-outs that look alike come from different tables or passages of the source."}
{"smiles": "COc1cc2c(cc1OC)C(=O)C(CC1CCN(Cc3ccccc3)CC1)C2", "note": "(centres unmarked) [Donepezil, donepezil]", "values": [{"measurement": "inhibition of the aggregation of Aβ peptide", "setting": "Aβ peptide; at 100 µM, as stated in introduction section", "value": 22, "unit": "%"}]}
{"smiles": "Cc1cc2c(c(=O)o1)C(c1ccc(OCCN3CCOCC3)cc1)C(C#N)=C(N)O2", "note": "(centres unmarked) [7f, 2-Amino-7-methyl-4-(4-(2-morpholinoethoxy)phenyl)-5-oxo-4H,5H-pyrano[4,3-b]pyran-3-carbonitrile]", "values": [{"measurement": "cholinesterase inhibitory activity against eeAChE", "setting": "[1]", "value": "did not show any cholinesterase inhibitory activity"}, {"measurement": "cholinesterase inhibitory activity against eqBuChE", "setting": "[2]", "value": "did not show any cholinesterase inhibitory activity"}]}
{"smiles": "Cc1cc2c(c(=O)o1)C(c1ccc(OCCN3CCCCC3)cc1)C(C#N)=C(N)O2", "note": "(centres unmarked) [7e, 2-Amino-7-methyl-5-oxo-4-(4-(2-(piperidin-1-yl)ethoxy)phenyl)-4H,5H-pyrano[4,3-b]pyran-3-carbonitrile]", "values": [{"measurement": "IC50", "setting": "[1]; [3]", "value": "2.1 ± 0.05", "unit": "µM"}, {"measurement": "inhibitory activity for eqBuChE", "setting": "[2]", "value": "no inhibitory activity"}]}
{"smiles": "N#CC1=C(N)OC2=C(C(=O)CCC2)C1c1ccc(OCCN2CCCCC2)cc1", "note": "(centres unmarked) [7a, 2-Amino-5-oxo-4-(4-(2-(piperidin-1-yl)ethoxy)phenyl)-5,6,7,8-tetrahydro-4H-chromene-3-carbonitrile]", "values": [{"measurement": "IC50", "setting": "[1]; [3]", "value": "20.4 ± 9.3", "unit": "µM"}, {"measurement": "IC50", "setting": "[2]", "value": "8.1 ± 0.5", "unit": "µM"}]}
{"smiles": "CC[N+](C)(C)c1cccc(O)c1", "note": "[edrophonium]", "values": [{"measurement": "IC50", "setting": "AChE", "value": 5.36, "unit": "µM"}, {"measurement": "effect on Aβ aggregation", "setting": "Aβ peptide", "value": "fails to slow down the Aβ aggregation"}]}
{"smiles": "COC(=O)/C(C#N)=C/c1ccc(OCCN2CCCCC2)cc1", "note": "[5c]", "values": [{"measurement": "selectivity for AChE than for BuChE", "setting": "[1]; eeAChE vs eqBuChE IC50", "value": "more than 200 fold"}, {"measurement": "IC50", "setting": "[1]; [3]", "value": 0.5, "unit": "µM"}, {"measurement": "inhibitory activity for eqBuChE", "setting": "[2]", "value": "no inhibitory activity was found; also recorded: no inhibition"}, {"measurement": "type of inhibition of eeAChE", "setting": "eeAChE; Lineweaver-Burk plots, substrate ATCI", "value": "mixed-type inhibition"}, {"measurement": "Ki", "setting": "eeAChE; slopes of Lineweaver-Burk plots against inhibitor concentrations", "value": 0.053, "unit": "µM"}]}
{"smiles": "N#CC(C#N)=Cc1ccc(OCCN2CCOCC2)cc1", "note": "[5b]", "values": [{"measurement": "cholinesterase inhibitory activity against eeAChE", "setting": "[1]", "value": "did not show any cholinesterase inhibitory activity"}, {"measurement": "cholinesterase inhibitory activity against eqBuChE", "setting": "[2]", "value": "did not show any cholinesterase inhibitory activity"}]}
{"smiles": "O=Cc1ccc(OCCN2CCOCC2)cc1", "note": "[3b, 4-(2-morpholinoethoxy)benzaldehyde]", "values": [{"measurement": "cholinesterase inhibitory activity against eeAChE", "setting": "[1]", "value": "did not show any cholinesterase inhibitory activity"}, {"measurement": "cholinesterase inhibitory activity against eqBuChE", "setting": "[2]", "value": "did not show any cholinesterase inhibitory activity"}]}
{"smiles": "N#CC(C#N)=Cc1ccc(OCCN2CCCCC2)cc1", "note": "[5a]", "values": [{"measurement": "IC50", "setting": "[1]", "value": "2.8 ± 0.05", "unit": "µM"}, {"measurement": "inhibitory activity for eqBuChE", "setting": "[2]", "value": "no inhibitory activity"}]}
{"smiles": "CC[N+](C)(CC)CCC[n+]1c(-c2ccccc2)c2cc(N)ccc2c2ccc(N)cc21", "note": "[Propidium, propidium]", "values": [{"measurement": "IC50", "setting": "AChE", "value": "[…]"}, {"measurement": "effect on Aβ aggregation", "setting": "Aβ peptide", "value": "reduces the aggregation"}]}
{"smiles": "CC1(C)CC(=O)C2=C(C1)OC(N)=C(C#N)C2c1ccc(OCCN2CCCCC2)cc1", "note": "(centres unmarked) [7c, 2-Amino-7,7-dimethyl-5-oxo-4-(4-(2-(piperidin-1-yl)ethoxy)phenyl)-5,6,7,8-tetrahydro-4H-chromene-3-carbonitrile]", "values": [{"measurement": "IC50", "setting": "[1]; [3]", "value": "35.6 ± 3.7", "unit": "µM"}, {"measurement": "IC50", "setting": "[2]", "value": "2.5 ± 0.6", "unit": "µM"}, {"measurement": "type of inhibition of eqBuChE", "setting": "eqBuChE; Lineweaver-Burk plot, substrate BTCI", "value": "mixed-type of inhibition"}, {"measurement": "Ki", "setting": "eqBuChE; plot of slopes against inhibitor concentration", "value": 0.156, "unit": "µM"}]}
